One may read the inhibition as how much of the control response was suppressed.

This is an account of results in patent publication US8785430B2, “Compound that can inhibit UBC13-UEV interactions, pharmaceutical compositions and therapeutic uses” (Consejo Superior de Investigaciones Cientificas, priority 2006, dated 2014).

In the experiment the target is T1, UBC13-UEV1 interaction (Homo sapiens, UniProt P61088).
T1 construct: expressed in transfected cells; host or cells: Saccharomyces cerevisiae strain AH109
T1 sequence (P61088 1-152): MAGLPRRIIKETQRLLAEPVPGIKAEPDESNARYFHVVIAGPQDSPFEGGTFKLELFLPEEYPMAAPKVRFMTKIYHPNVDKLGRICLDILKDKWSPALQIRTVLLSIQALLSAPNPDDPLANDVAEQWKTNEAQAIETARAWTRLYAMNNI
As to the kind of experiment: Two-hybrid assay in yeasts for the UBC13-UEV1 interaction (β-galactosidase). The note with it: read-out: inhibition of the interaction between UBC13 and UEV1. In kind it is cell-based. The text has this:
The interaction between UBC13 and UEV1 is detected by means of two-hybrid assays in yeast. The protein forms of UBC13 and UEV1 used in the following examples are of Homo sapiens. The UBC13 protein, also referred to as UBE2N (HUGO nomenclature) has the following identifiers: NCBI-GI: 4507793, UniProt: P61088 and [EC:6.3.2.19]. The UEV1 protein, also referred to as UBE2V1 (HUGO nomenclature), has the following identifiers: NCBI-GI: 73765546 and UniProt: {tilde under (O)}13404. In this assay, UBC13 is expressed as a fusion protein with the Gal4 DNA-binding domain (DBD-UBC13) from the plasmid pBD-UBC13, and UEV1 is expressed as a fusion protein with the Gal4 transcriptional activation domain (AD-UEV1) from the plasmid pACT2-UEV1. Both plasmids are cotransfected in the Saccharomyces cerevisiae strain AH109, being grown on plates with […] without leucine or tryptophan, selecting only the colonies expressing […] for these two amino acids, i.e., those containing the two co-transfected plasmids. […]

In the case of `NC(=O)CN(CCc1ccccn1)C(=O)CC1C(=O)N(CCc2ccc(F)cc2)CC(=O)N1CCc1ccc(F)cc1` (centres unmarked) [Ib, 1,4-bis[2′-(4″-fluorophenyl)ethyl]-2-[N-aminocarbonylmethyl-N-(2′-(2″-pyridyl)ethyl)-carbonylmethyl]piperazine-3,6-dione], the inhibition at 100 µM was around 40%.

For the molecule `NC(=O)CN(CCc1ccccn1)C(=O)C1CC(=O)N(CCc2ccc(F)cc2)CC(=O)N1CCc1ccc(F)cc1` (centres unmarked) [Ia, N-aminocarbamoylmethyl-N-(2′-(2″pyridyl)ethyl)-1,4-bis[2′-(4″-fluorophenyl)ethyl]-3,7-dioxo-[1,4]diazepane-5-carboxamide], the inhibition at 100 µM was around 60%.
